Reference: US11578055B2, “Triazacyclododecansulfonamide (“TCD”)-based protein secretion inhibitors” (KEZAR LIFE SCIENCES, priority 2018, dated 2023)

Assays:
[1] = In Vitro Microsome Stability Assay (human); format: in vitro ADME; conditions: human, 30 min, NADPH
Protocol: (§1) Potassium phosphate (423 μL of a 0.1 M solution) was added to 8-strip deep well tubes followed by human, mouse, rat, or monkey microsomes (25 μL of a 20 mg/mL solution). The tubes were then placed on ice and the test article (2 μL of a 0.25 mM solution in DMSO) was added. The mixture was preincubated at 37° C. for 3 to 5 minutes (shaking at 150 rpm) then the reaction was initiated by adding 50 μL NADPH. An aliquot of samples (100 μL) were collected at 0 and 30 min and 200 μL of an acetonitrile mixture containing IS (compound 914) was added to quench the reaction. After centrifuging for 10 min at 4000 rpm, a mixed solution of the 20 μL of the supernatant (20 μL) plus 100 μL ACN/H2O (1:1) were injected for LC-MS/MS analysis. Liver microsome stability is assessed by the % remaining of compound at 30 min which is calculated using the following equation: [(AUCanalyteT=30/AUCIS)/(AUCanalyteT=0/AUCIS)]*100
(§2) For chemical structures that include one or more stereoisomers, but are illustrated without indicating stereochemistry, the assay data refers to a mixture of stereoisomers.

[2] = tested on: full length TNFα (amino acids 1-233) fused to Gaussia Luciferase; assay: Dox Induced TNFα-FL-Gluc Assay; format: cell-based; conditions: 24 hr, 293FRT/TO; read-out: 24 hr Dox Inducible TNFaFLGluc 293FRT/TO: Mean IC50
Excerpt: (§3) FIp-In 293 T-REx™ cells were transfected with pcDNA™5/FRT/TO plasmid inserted with cDNA encoding Gaussia Luciferase fused to the 3′ end of cDNA encoding full length TNFα (amino acids 1-233). Transfected cells were selected for resistance to the selectable markers Hygromycin and Blasticidin to create a stable cell line that contained the TNFα-FL/Gaussia Luciferase cDNA insert whose expression was regulated under the T-REx™ system. The day before assay, cells were trypsinized and plated in 384-well tissue culture plates. The next day, compound dilutions in DMSO/media containing doxycycline were added to the wells and incubated at 37° C., 5% CO2.
as §2

[3] = tested on: PD1 signal sequence plus 10 amino acids fused to Gaussia Luciferase (PD1-ss+10aa/Gaussia Luciferase); assay: Dox Induced PD1-ss-Gluc Assay; format: cell-based; conditions: 24 hr, 293FRT/TO; read-out: 24 hr Dox Inducible PD1ssGluc 293FRT/TO: Mean IC50
Excerpt: as §3, with “PD1 signal sequence plus 10 amino” for “full length TNFα (amino”, “(N-[…]-C) (SEQ ID NO: 1).” for “1-233).”, “PD1-ss+10aa/Gaussia” for “TNFα-FL/Gaussia”
as §2

[4] = tested on: multiple myeloma cell line U266B1; assay: U266 Cell Viability Assay; format: cell-based, human; conditions: Homo sapiens, U-266; 48 hr, U266; read-out: 48 hr U266 Viability Celltiter-Glo: Mean EC50
Protocol: (§4) The human multiple myeloma cell line U266B1 was cultured in RPMI 1640 media supplemented with 10% fetal bovine serum, 2 mM Glutamine, and 1× Penicillin/Streptomycin. Cells were plated in 384-well tissue culture plates and treated with compound dilutions in DMSO/media. Plates were incubated at 37° C., 5% CO2 for 48 hours. After 48 hours, Celltiter-Glo® (Promega) was added to each well and luciferase signal was quantified using Tecan Infinite M1000 Pro for cell viability determination.
For chemical structures that include one or more stereoisomers, but are illustrated without indicating stereochemistry, the assay data refers to a mixture of stereoisomers

[5] = tested on: multiple myeloma cell line NCl-H929; assay: H929 Cell Viability Assay; format: cell-based, human; conditions: Homo sapiens, NCI-H929, 48 h, H929, read-out: 48 hr H929 Viability Celltiter-Glo: Mean EC50
Protocol: as §4, with “NCl-H929” for “U266B1”, “cultured in Advanced RPMI 1640 media (Gibco®) supplemented with 6% fetal bovine serum, 2 mM Glutamine, and 1× Penicillin/Streptomycin. On the day of assay, cells were resuspended” for “cultured”, “Penicillin/Streptmycin and” for “Penicillin/Streptomycin. Cells were”
as §2

[6] = In Vitro Microsome Stability Assay (rat); format: in vitro ADME; conditions: rat, 30 min, NADPH
Protocol: as §1, §2

[7] = In Vitro Microsome Stability Assay (monkey); format: in vitro ADME; conditions: monkey, 30 min, NADPH
Protocol: as §1, §2

[8] = In Vitro Microsome Stability Assay (mouse); format: in vitro ADME; conditions: mouse, 30 min, NADPH
Protocol: as §1, §2

| Structure (SMILES) | Liver Microsome Stability-% Left after 30 min w/ NADPH (%) Human [1] | IC50 [2] | IC50 [3] | EC50 [4] | EC50 [5] | Liver Microsome Stability-% Left after 30 min w/ NADPH (%) Rat [6] | Liver Microsome Stability-% Left after 30 min w/ NADPH (%) Monkey [7] | Liver Microsome Stability-% Left after 30 min w/ NADPH (%) Mouse [8] |
| --- | --- | --- | --- | --- | --- | --- | --- | --- |
| O=C(c1ccc(Cl)cc1)N1CCCN(S(=O)(=O)N2CCCCC2)CC2(CC2)CN(S(=O)(=O)N2CCCCC2)CCC1 [A24, (5,13-bis(piperidin-1-ylsulfonyl)-5,9,13-triazaspiro[2.11]tetradecan-9-yl)(4-chlorophenyl)methanone] | 0.03% | > 25 µM | > 25 µM | > 25 µM | > 25 µM | 0.04% | 0.03% | 0.13% |
| CN(C)c1ccc(S(=O)(=O)N2CCCN(CC3CCCCC3)CCCN(S(=O)(=O)N3CCCCCC3)CC3(CC3)C2)cc1 [A25, 4-{[13-(azepane-1-sulfonyl)-9-(cyclohexylmethyl)-5,9,13-triazaspiro[2.11]tetradecan-5-yl]sulfonyl}-N,N-dimethylaniline] | 0.12% | > 25 µM | 0.435 µM | > 25 µM | > 25 µM | 4.16% | 0.2% | 0.32% |
| COC1CCN(S(=O)(=O)N2CCCN(CC3CCCCC3)CCCN(S(=O)(=O)c3ccc(N(C)C)cc3)CC3(CC3)C2)CC1 [A27, 4-{[9-(cyclohexylmethyl)-13-[(4-methoxypiperidin-1-yl)sulfonyl]-5,9,13-triazaspiro[2.11]tetradecan-5-yl]sulfonyl}-N,N-dimethylaniline] | 2.52% | > 25 µM | 0.493 µM | > 25 µM | > 25 µM | 0.98% | 2.07% | 2.15% |
| Cc1cc(N(C)C)ccc1S(=O)(=O)N1CCCN(CC2CCCCC2)CCCN(S(=O)(=O)N2CCCCC2)CC2(CC2)C1 [A30, 4-{[9-(cyclohexylmethyl)-13-(piperidine-1-sulfonyl)-5,9,13-triazaspiro[2.11]tetradecan-5-yl]sulfonyl}-N,N,3-trimethylaniline] | 0.12% | > 25 µM | 0.793 µM | > 25 µM | > 25 µM | 0.28% | 0.03% | 0.35% |
| COc1ccccc1S(=O)(=O)N1CCCN(CC2CCCCC2)CCCN(S(=O)(=O)N2CCCCC2)CC2(CC2)C1 [A33, 9-(cyclohexylmethyl)-5-(2-methoxybenzenesulfonyl)-13-(piperidine-1-sulfonyl)-5,9,13-triazaspiro[2.11]tetradecane] | 0.05% | > 25 µM | > 25 µM | > 25 µM | > 25 µM | 0.13% | 0.07% | 0.08% |
| C=C1CN(S(=O)(=O)c2ccc(N(C)C)cc2)CCCN(CC2CCCCC2)CCCN(S(=O)(=O)N2CCCC(c3ccccc3)C2)C1 (stereo not shown) [A38, 4-{[9-(cyclohexylmethyl)-3-methylidene-5-[(3-phenylpiperidin-1-yl)sulfonyl]-1,5,9-triazacyclododecan-1-yl]sulfonyl}-N,N-dimethylaniline] | 11.4% | 5.49 µM | 0.0751 µM | > 25 µM | > 11.8 µM | 24.2% | 9.04% | 12.6% |

Results, then the compound that gave them:

| Liver Microsome Stability-% Left after 30 min w/ NADPH (%) Human [1] | IC50 [2] | IC50 [3] | EC50 [4] | EC50 [5] | Liver Microsome Stability-% Left after 30 min w/ NADPH (%) Rat [6] | Liver Microsome Stability-% Left after 30 min w/ NADPH (%) Monkey [7] | Liver Microsome Stability-% Left after 30 min w/ NADPH (%) Mouse [8] | Structure (SMILES) |
| --- | --- | --- | --- | --- | --- | --- | --- | --- |
| 6.65% | > 25 µM | 0.224 µM | > 25 µM | 16.1 µM | 1.84% | 0.13% | 3.4% | CN(C)c1ccc(S(=O)(=O)N2CCCN(CC3CCCCC3)CCCN(S(=O)(=O)N3CCC(C)(C)CC3)CC3(CC3)C2)cc1 [A26, 4-{[9-(cyclohexylmethyl)-13-[(4,4-dimethylpiperidin-1-yl)sulfonyl]-5,9,13-thazaspiro[2.11]tetradecan-5-yl]sulfonyl}-N,N-dimethylaniline] |
| 0.05% | > 25 µM | 0.619 µM | > 25 µM | > 25 µM | 0.09% | 0.03% | 0.25% | COc1ccc(S(=O)(=O)N2CCCN(CC3CCCCC3)CCCN(S(=O)(=O)N3CCCCC3)CC3(CC3)C2)cc1 [A31, 9-(cyclohexylmethyl)-5-(4-methoxybenzenesulfonyl)-13-(piperidine-1-sulfonyl)-5,9,13-triazaspiro[2.11]tetradecane] |
| 0.06% | > 25 µM | > 25 µM | > 25 µM | > 25 µM | 0.27% | 0.09% | 0.51% | COc1cccc(S(=O)(=O)N2CCCN(CC3CCCCC3)CCCN(S(=O)(=O)N3CCCCC3)CC3(CC3)C2)c1 [A32, 9-(cyclohexylmethyl)-5-(3-methoxybenzenesulfonyl)-13-(piperidine-1-sulfonyl)-5,9,13-triazaspiro[2.11]tetradecane] |
| 0.03% | > 25 µM | > 25 µM | > 25 µM | > 25 µM | 0.12% | 0.09% | 0.24% | O=S(=O)(c1ccccc1)N1CCCN(CC2CCCCC2)CCCN(S(=O)(=O)N2CCCCC2)CC2(CC2)C1 [A34, 5-(benzenesulfonyl)-9-(cyclohexylmethyl)-13-(piperidine-1-sulfonyl)-5,9,13-triazaspiro[2.11]tetradecane] |
| 8.26% | > 25 µM | 0.202 µM | > 25 µM | > 25 µM | 13.5% | 5.69% | 6.03% | C=C1CN(S(=O)(=O)c2ccc(N(C)C)cc2)CCCN(CC2CCCCC2)CCCN(S(=O)(=O)N2CCC(Oc3ccccc3)CC2)C1 [A37, 4-{[9-(cyclohexylmethyl)-3-methylidene-5-[(4-phenoxypiperidin-1-yl)sulfonyl]-1,5,9-triazacyclododecan-1-yl]sulfonyl}-N,N-dimethylaniline] |
